# According to patent US20020111274A1, “1-alkyl-3-[1-(substituted phenyl) benzotriazol-6-yl] uracils” (BASF Aktiengesellschaft, priority 2000, published 2002):
# Assays:
# ABUTH Velvetleaf [1] = assay: Postemergence herbicidal evaluation, ABUTH; format: in vivo, Abutilon theophrasti, Medic.; details: postemergence spray, rated about two-three weeks after treatment
# Outline: (§1)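 Seedlings grown about two weeks were sprayed with compound in 80/20 acetone/water containing 1.0% methylated seed oil, at the equivalent of about 0.006 to 0.400 kg/ha, through a nozzle at 40 psi. Plants were kept in the greenhouse and rated visually about two to three weeks after treatment.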
# AMBEL Ragweed, Common [2] = assay: Postemergence herbicidal evaluation, AMBEL; format: in vivo, Ambrosia artemisifolia, L.; details: postemergence spray, rated about two-three weeks after treatment
# Outline: as §1
# CASOB Sicklepod [3] = assay: Postemergence herbicidal evaluation, CASOB; format: in vivo, Cassia obtusifolia, L.; details: postemergence spray, rated about two-three weeks after treatment
# Outline: as §1
# [4] = test system: CHEAL Lambsquarters, Common; assay: Postemergence herbicidal evaluation, CHEAL; format: in vivo, Chenopodium album, L.; details: postemergence spray, rated about two-three weeks after treatment
# Outline: as §1
# ECHOG Barnyardgrass [5] = assay: Postemergence herbicidal evaluation, ECHOG; format: in vivo, Echinochloa crus-galli, (L.) Beau; details: postemergence spray, rated about two-three weeks after treatment
# Outline: as §1
# GALAP Galium [6] = assay: Postemergence herbicidal evaluation, GALAP; format: in vivo, Galium aparine; details: postemergence spray, rated about two-three weeks after treatment
# Outline: as §1
# [7] = test system: IPOHE Morningglory, Ivyleaf; assay: Postemergence herbicidal evaluation, IPOHE; format: in vivo, Ipomoea hederacea, (L.) Jacq.; details: postemergence spray, rated about two-three weeks after treatment
# Outline: as §1
# SETVI Foxtail, Green [8] = assay: Postemergence herbicidal evaluation, SETVI; format: in vivo, Setaria viridis, (L.) Beau; details: postemergence spray, rated about two-three weeks after treatment
# Outline: as §1
# GLXMAW Soybean, Williams [9] = assay: Postemergence herbicidal evaluation, GLXMAW; format: in vivo, Glycine max, (L.) Merr. cv Williams; details: postemergence spray, rated about two-three weeks after treatment
# Outline: as §1
# [10] = test system: TRZAWR Wheat, Winter, cv Riband; assay: Postemergence herbicidal evaluation, TRZAWR; format: in vivo, Triticum aestivum; details: postemergence spray, rated about two-three weeks after treatment
# Outline: as §1
# ORYSAT Rice, Tebonnet [11] = assay: Postemergence herbicidal evaluation, ORYSAT; format: in vivo, Oryza sativa, (L.); details: postemergence spray, rated about two-three weeks after treatment
# Outline: as §1
# ZEAMX Corn, Field [12] = assay: Postemergence herbicidal evaluation, ZEAMX; format: in vivo, Zea mays, L. (Sammel-Bezeichnung); details: postemergence spray, rated about two-three weeks after treatment
# Outline: as §1
# ABUTH Velvetleaf [13] = assay: Preemergence herbicidal evaluation, ABUTH; format: in vivo, Abutilon theophrasti, Medic.; details: preemergence
# Outline: (§2)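 Compound applied preemergence as an aqueous acetone spray onto freshly planted cups, dose equivalent approx. 0.013 to 0.800 kg/ha. Evaluation by rating at weeks 4–5.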
# AMBEL Ragweed, Common [14] = assay: Preemergence herbicidal evaluation, AMBEL; format: in vivo, Ambrosia artemisifolia, L.; details: preemergence
# Outline: as §2
# CASOB Sicklepod [15] = assay: Preemergence herbicidal evaluation, CASOB; format: in vivo, Cassia obtusifolia, L.; details: preemergence
# Outline: as §2
# [16] = test system: CHEAL Lambsquarters, Common; assay: Preemergence herbicidal evaluation, CHEAL; format: in vivo, Chenopodium album, L.; details: preemergence
# Outline: as §2
# ECHOG Barnyardgrass [17] = assay: Preemergence herbicidal evaluation, ECHOG; format: in vivo, Echinochloa crus-galli, (L.) Beau; details: preemergence
# Outline: as §2
# GALAP Galium [18] = assay: Preemergence herbicidal evaluation, GALAP; format: in vivo, Galium aparine; details: preemergence
# Outline: as §2
# [19] = test system: IPOHE Morningglory, Ivyleaf; assay: Preemergence herbicidal evaluation, IPOHE; format: in vivo, Ipomoea hederacea, (L.) Jacq.; details: preemergence
# Outline: as §2
# SETVI Foxtail, Green [20] = assay: Preemergence herbicidal evaluation, SETVI; format: in vivo, Setaria viridis, (L.) Beau; details: preemergence
# Outline: as §2
# GLXMAW Soybean, Williams [21] = assay: Preemergence herbicidal evaluation, GLXMAW; format: in vivo, Glycine max, (L.) Merr. cv Williams; details: preemergence
# Outline: as §2
# [22] = test system: TRZAWR Wheat, Winter, cv Riband; assay: Preemergence herbicidal evaluation, TRZAWR; format: in vivo, Triticum aestivum; details: preemergence
# Outline: as §2
# ORYSAT Rice, Tebonnet [23] = assay: Preemergence herbicidal evaluation, ORYSAT; format: in vivo, Oryza sativa, (L.); details: preemergence
# Outline: as §2
# ZEAMX Corn, Field [24] = assay: Preemergence herbicidal evaluation, ZEAMX; format: in vivo, Zea mays, L. (Sammel-Bezeichnung); details: preemergence
# Outline: as §2
structure (smiles),measurement,setting,value
COC(=O)COc1ccc(C)cc1-n1nnc2cc(F)c(-n3c(=O)cc(C(F)(F)F)n(C)c3=O)cc21 [Example 34],Postemergence herbicidal rating ABUTH,ABUTH Velvetleaf [1]; 0.008 kg/ha,9.0
same,Postemergence herbicidal rating ABUTH,ABUTH Velvetleaf [1]; 0.016 kg/ha,9.0
same,Postemergence herbicidal rating ABUTH,ABUTH Velvetleaf [1]; 0.032 kg/ha,9.0
same,Postemergence herbicidal rating ABUTH,ABUTH Velvetleaf [1]; 0.062 kg/ha,9.0
same,Postemergence herbicidal rating AMBEL,"AMBEL Ragweed, Common [2]; 0.008 kg/ha",0.0
same,Postemergence herbicidal rating AMBEL,"AMBEL Ragweed, Common [2]; 0.016 kg/ha",3.0
same,Postemergence herbicidal rating AMBEL,"AMBEL Ragweed, Common [2]; 0.032 kg/ha",9.0
same,Postemergence herbicidal rating AMBEL,"AMBEL Ragweed, Common [2]; 0.062 kg/ha",9.0
same,Postemergence herbicidal rating CASOB,CASOB Sicklepod [3]; 0.008 kg/ha,0.0
same,Postemergence herbicidal rating CASOB,CASOB Sicklepod [3]; 0.016 kg/ha,0.0
same,Postemergence herbicidal rating CASOB,CASOB Sicklepod [3]; 0.032 kg/ha,1.0
same,Postemergence herbicidal rating CASOB,CASOB Sicklepod [3]; 0.062 kg/ha,5.0
same,Postemergence herbicidal rating CHEAL,[4]; 0.008 kg/ha,2.0
same,Postemergence herbicidal rating CHEAL,[4]; 0.016 kg/ha,3.0
same,Postemergence herbicidal rating CHEAL,[4]; 0.032 kg/ha,3.0
same,Postemergence herbicidal rating CHEAL,[4]; 0.062 kg/ha,9.0
same,Postemergence herbicidal rating ECHCG,ECHOG Barnyardgrass [5]; 0.008 kg/ha,7.0
same,Postemergence herbicidal rating ECHCG,ECHOG Barnyardgrass [5]; 0.016 kg/ha,9.0
same,Postemergence herbicidal rating ECHCG,ECHOG Barnyardgrass [5]; 0.032 kg/ha,9.0
same,Postemergence herbicidal rating ECHCG,ECHOG Barnyardgrass [5]; 0.062 kg/ha,9.0
same,Postemergence herbicidal rating GALAP,GALAP Galium [6]; 0.008 kg/ha,0.0
same,Postemergence herbicidal rating GALAP,GALAP Galium [6]; 0.016 kg/ha,3.0
same,Postemergence herbicidal rating GALAP,GALAP Galium [6]; 0.032 kg/ha,4.0
same,Postemergence herbicidal rating GALAP,GALAP Galium [6]; 0.062 kg/ha,4.0
same,Postemergence herbicidal rating IPOHE,[7]; 0.008 kg/ha,9.0
same,Postemergence herbicidal rating IPOHE,[7]; 0.016 kg/ha,9.0
same,Postemergence herbicidal rating IPOHE,[7]; 0.032 kg/ha,9.0
same,Postemergence herbicidal rating IPOHE,[7]; 0.062 kg/ha,9.0
same,Postemergence herbicidal rating SETVI,"SETVI Foxtail, Green [8]; 0.008 kg/ha",9.0
same,Postemergence herbicidal rating SETVI,"SETVI Foxtail, Green [8]; 0.016 kg/ha",9.0
same,Postemergence herbicidal rating SETVI,"SETVI Foxtail, Green [8]; 0.032 kg/ha",9.0
same,Postemergence herbicidal rating SETVI,"SETVI Foxtail, Green [8]; 0.062 kg/ha",9.0
same,Postemergence herbicidal rating GLXMAW,"GLXMAW Soybean, Williams [9]; 0.008 kg/ha",5.0
same,Postemergence herbicidal rating GLXMAW,"GLXMAW Soybean, Williams [9]; 0.016 kg/ha",6.5
same,Postemergence herbicidal rating GLXMAW,"GLXMAW Soybean, Williams [9]; 0.032 kg/ha",7.0
same,Postemergence herbicidal rating GLXMAW,"GLXMAW Soybean, Williams [9]; 0.062 kg/ha",7.0
same,Postemergence herbicidal rating TRZAWR,[10]; 0.008 kg/ha,5.0
same,Postemergence herbicidal rating TRZAWR,[10]; 0.016 kg/ha,5.0
same,Postemergence herbicidal rating TRZAWR,[10]; 0.032 kg/ha,7.0
same,Postemergence herbicidal rating TRZAWR,[10]; 0.062 kg/ha,8.0
same,Postemergence herbicidal rating ORYSAT,"ORYSAT Rice, Tebonnet [11]; 0.008 kg/ha",3.0
same,Postemergence herbicidal rating ORYSAT,"ORYSAT Rice, Tebonnet [11]; 0.016 kg/ha",4.0
same,Postemergence herbicidal rating ORYSAT,"ORYSAT Rice, Tebonnet [11]; 0.032 kg/ha",6.5
same,Postemergence herbicidal rating ORYSAT,"ORYSAT Rice, Tebonnet [11]; 0.062 kg/ha",7.5
same,Postemergence herbicidal rating ZEAMX,"ZEAMX Corn, Field [12]; 0.008 kg/ha",7.0
same,Postemergence herbicidal rating ZEAMX,"ZEAMX Corn, Field [12]; 0.016 kg/ha",7.5
same,Postemergence herbicidal rating ZEAMX,"ZEAMX Corn, Field [12]; 0.032 kg/ha",8.5
same,Postemergence herbicidal rating ZEAMX,"ZEAMX Corn, Field [12]; 0.062 kg/ha",9.0
same,ABUTH herbicidal rating,ABUTH Velvetleaf [13]; rate 0.016 kg/ha,9.0
same,ABUTH herbicidal rating,ABUTH Velvetleaf [13]; rate 0.032 kg/ha,9.0
same,ABUTH herbicidal rating,ABUTH Velvetleaf [13]; rate 0.062 kg/ha,9.0
same,ABUTH herbicidal rating,ABUTH Velvetleaf [13]; rate 0.125 kg/ha,9.0
same,AMBEL herbicidal rating,"AMBEL Ragweed, Common [14]; rate 0.016 kg/ha",1.0
same,AMBEL herbicidal rating,"AMBEL Ragweed, Common [14]; rate 0.032 kg/ha",5.0
same,AMBEL herbicidal rating,"AMBEL Ragweed, Common [14]; rate 0.062 kg/ha",6.0
same,AMBEL herbicidal rating,"AMBEL Ragweed, Common [14]; rate 0.125 kg/ha",8.0
same,CASOB herbicidal rating,CASOB Sicklepod [15]; rate 0.032 kg/ha,2.0
same,CASOB herbicidal rating,CASOB Sicklepod [15]; rate 0.062 kg/ha,2.5
same,CASOB herbicidal rating,CASOB Sicklepod [15]; rate 0.125 kg/ha,6.0
same,CHEAL herbicidal rating,[16]; rate 0.016 kg/ha,9.0
same,CHEAL herbicidal rating,[16]; rate 0.032 kg/ha,9.0
same,CHEAL herbicidal rating,[16]; rate 0.062 kg/ha,9.0
same,CHEAL herbicidal rating,[16]; rate 0.125 kg/ha,9.0
same,ECHCG herbicidal rating,ECHOG Barnyardgrass [17]; rate 0.016 kg/ha,4.0
same,ECHCG herbicidal rating,ECHOG Barnyardgrass [17]; rate 0.032 kg/ha,2.0
same,ECHCG herbicidal rating,ECHOG Barnyardgrass [17]; rate 0.062 kg/ha,5.0
same,ECHCG herbicidal rating,ECHOG Barnyardgrass [17]; rate 0.125 kg/ha,7.5
same,GALAP herbicidal rating,GALAP Galium [18]; rate 0.016 kg/ha,0.0
same,GALAP herbicidal rating,GALAP Galium [18]; rate 0.032 kg/ha,0.0
same,GALAP herbicidal rating,GALAP Galium [18]; rate 0.062 kg/ha,0.0
same,GALAP herbicidal rating,GALAP Galium [18]; rate 0.125 kg/ha,7.0
same,IPOHE herbicidal rating,[19]; rate 0.032 kg/ha,9.0
same,IPOHE herbicidal rating,[19]; rate 0.062 kg/ha,5.0
same,IPOHE herbicidal rating,[19]; rate 0.125 kg/ha,9.0
same,SETVI herbicidal rating,"SETVI Foxtail, Green [20]; rate 0.016 kg/ha",7.0
same,SETVI herbicidal rating,"SETVI Foxtail, Green [20]; rate 0.032 kg/ha",6.0
same,SETVI herbicidal rating,"SETVI Foxtail, Green [20]; rate 0.062 kg/ha",9.0
same,SETVI herbicidal rating,"SETVI Foxtail, Green [20]; rate 0.125 kg/ha",9.0
same,GLXMAW herbicidal rating,"GLXMAW Soybean, Williams [21]; rate 0.016 kg/ha",1.0
same,GLXMAW herbicidal rating,"GLXMAW Soybean, Williams [21]; rate 0.032 kg/ha",1.0
same,GLXMAW herbicidal rating,"GLXMAW Soybean, Williams [21]; rate 0.062 kg/ha",1.5
same,GLXMAW herbicidal rating,"GLXMAW Soybean, Williams [21]; rate 0.125 kg/ha",2.0
same,TRZAWR herbicidal rating,[22]; rate 0.016 kg/ha,1.0
same,TRZAWR herbicidal rating,[22]; rate 0.032 kg/ha,1.0
same,TRZAWR herbicidal rating,[22]; rate 0.062 kg/ha,1.0
same,TRZAWR herbicidal rating,[22]; rate 0.125 kg/ha,3.0
same,ORYSAT herbicidal rating,"ORYSAT Rice, Tebonnet [23]; rate 0.016 kg/ha",1.0
same,ORYSAT herbicidal rating,"ORYSAT Rice, Tebonnet [23]; rate 0.032 kg/ha",2.5
same,ORYSAT herbicidal rating,"ORYSAT Rice, Tebonnet [23]; rate 0.062 kg/ha",3.0
same,ORYSAT herbicidal rating,"ORYSAT Rice, Tebonnet [23]; rate 0.125 kg/ha",5.0
same,ZEAMX herbicidal rating,"ZEAMX Corn, Field [24]; rate 0.016 kg/ha",0.0
same,ZEAMX herbicidal rating,"ZEAMX Corn, Field [24]; rate 0.032 kg/ha",0.5
same,ZEAMX herbicidal rating,"ZEAMX Corn, Field [24]; rate 0.062 kg/ha",3.5
same,ZEAMX herbicidal rating,"ZEAMX Corn, Field [24]; rate 0.125 kg/ha",4.0
